Like-named read-outs stand apart in the source and are kept apart here. Values belong to the compound of their own block, whether it stands above or below them.
Columns and labels:
MRSA [1] = experiment: QolorAST minimum inhibitory concentration (MIC) test; assay type: cell-based, Staphylococcus aureus
Protocol: Ampicillin-resistant E. coli strain mm294 was cultured overnight at 37° C. in Luria broth (LB) media supplemented with 100 μg/mL Ampicillin. […] Next, the bacterial concentration was determined by optical density technique using a Spectronic 21D spectrophotometer. Subsequently, aliquots of different concentrations were prepared for the antibiotic susceptibility testing experiments in LB media. Biotyper spectra (MALDI Bruker).
5×10^5 CFU ml^−1 Oxacillin-resistant S. aureus aliquots were prepared using resazurin/oxacillin solution using different concentrations of oxacillin antibiotic (16 μg/mL, 32 μg/mL, and 64 μg/mL). 5×10^5 CFU ml^−1 Cipro.
A minimum inhibitory concentration (MIC) was performed to study the QolorAST broad applicability in detecting bacterial resistance profiles and ensuring timely and efficient antimicrobial theraby. […] The antibiotics cover major bacterial inhibition mechanisms as inhibition of protein synthesis, cell wall synthesis, and/or DNA synthesis.
QolorAST exploited two methodologies: Manual MIC (MA-MIC) and support vector machine MIC (SVM-MIC). […] The SVM-MIC was carried out with a rbf kernel that was optimized and trained to predict the color change of the preclinical images using our library of bacteria images collected under different conditions including images where color is changed, color transitioning, and no color change. The SVM successfully classified the condition's bacteria-antibiotic in the concentration range studied.

MRSA [2] = experiment: Phenotypic QolorAST rapid AST (resazurin reduction); assay type: cell-based, Staphylococcus aureus; details: 10^5 cfu/mL MRSA, antibiotic concentrations, 0-60 min
Protocol: (§1) Resistant E. coli, Oxacillin-resistant S. aureus, and Cipro. Resistant PA respectively was used. The aliquots were incubated at 37° C. different periods starting from 0 minutes incubation till 60 minutes with a time step of 5 minutes.
(§2) Resistant PA respectively was used. The aliquots were incubated at 37° C. different periods starting from 0 minutes incubation until 60 minutes with a time step of 5 minutes.
(§3) MRSA and PA respectively.

Pseudomonas aeruginosa = experiment: as above; assay type: cell-based; details: 10^5 cfu/mL PA, antibiotic concentrations, 0-60 min
Protocol: as §1, §2, §3

E. coli [3] = test system: E. coli
Protocol: To evaluate the QolorAST performance in clinical settings, a double-blinded clinical study at the McGill University Health Center (MUHC) was performed. 47 patients suspected of urinary tract infections, admitted to MUHC emergency clinics between August 2022 to August 2023 were tested. Specimens were consented, collected from the patients and the experiments were done in microbiology labs in MUHC. Each specimen were divided in 3 to be tested in parallel in the central laboratory of the hospital (quantification, identification and MIC), in the research laboratory (quantification, identification and MIC for 2 antibiotics) and with QolorAST genotypic/phenotypic assays in microbiology lab at MUHC. The device has 24 chambers where the media/resazurin/antibiotic mixes as well as the patient samples are injected mixed. […] Therefore, reagent loading port was preloaded with media, specific concentration antibiotic and resazurin at final concentration of 0.25 mg/mL and urine was added to urine loading port. Thereafter, by pressing the pushing button the urine was mixed with the rest of solution at a volumetric ratio of 1:4 which would be the starting point for incubation and imaging of the samples. The samples were incubated at 37° C. at different timepoints starting from 0 to 60 minutes with a time interval of 10 minutes and the imaging was performed as described above.

E. coli [4] = experiment: Standard broth microdilution MIC on isolates from patient urine specimens; assay type: cell-based, Escherichia coli
Protocol: For the standard testing the urine specimens were diluted 1/1000 using CamHB and both the original concentration and a 1/1000 dilution of the specimen were plated on BAP with a 1 μL calibrated loop and incubated for 18-20h at 37 C with 5% CO2. The […] concentration is then calculated for all the isolates coming from each specimen. […] At the end of the process, the inoculum quantification is checked by counted CFU from serial dilutions of the inoculum. A growth positive control (inoculum with no antibiotic), a wild type strain of E. Coli (MG1655) and E. Faecalis are also included and processed in the same way as the isolates for each experiment. Finally, each isolate is plated on BAP to control their monoculture state and to be identified by MALDI.
Samples were tested in parallel using two methods: conventional (Matrix-assisted laser desorption/ionization-time of flight—MALDI/TOF—for bacterial identification and CLSI BMD method for AST) and QolorAST (genotypic for bacterial ID and phenotypic AST). […] Subsequently, we used the images of negative, fastidious, and not fastidious samples to establish a new training for the SVM to classify the specimens into no growth (negative) and growth (positive) classes. We implemented a detection time of 30 mins and a cutoff threshold of 0.6 to differentiate between positive and negative specimens (FIG. 34G).

QolorAST MIC Manual (MA-MIC) (MRSA [1]): 1 µg/mL
QolorAST MIC SVM (SVM-MIC) (MRSA [1]): 1 µg/mL
SMILES: O=C(O)c1cn(C2CC2)c2cc(N3CCNCC3)c(F)cc2c1=O [Ciprofloxacin]
resistance or susceptibility (MRSA [1]): susceptibility
QolorAST colour readout over incubation (MRSA [2]): consistent blue color
QolorAST colour readout over incubation (Pseudomonas aeruginosa): consistent color change from blue to green

QolorAST MIC Manual (MA-MIC) (E. coli [3]; Patient # 49, urine specimen): 8
QolorAST MIC SVM (SVM-MIC) (E. coli [3]; Patient # 49, urine specimen): 8
QolorAST MIC Manual (MA-MIC) (E. coli [3]; Patient # 50, urine specimen): 8
QolorAST MIC SVM (SVM-MIC) (E. coli [3]; Patient # 50, urine specimen): 8
QolorAST MIC Manual (MA-MIC) (E. coli [3]; Patient # 51*, urine specimen): <0.25
QolorAST MIC SVM (SVM-MIC) (E. coli [3]; Patient # 51*, urine specimen): <0.25
QolorAST MIC Manual (MA-MIC) (E. coli [3]; Patient # 52, urine specimen): 16
QolorAST MIC SVM (SVM-MIC) (E. coli [3]; Patient # 52, urine specimen): 16
QolorAST MIC Manual (MA-MIC) (E. coli [3]; Patient # 53, urine specimen): 4
QolorAST MIC SVM (SVM-MIC) (E. coli [3]; Patient # 53, urine specimen): 4
QolorAST MIC Manual (MA-MIC) (E. coli [3]; Patient # 54, urine specimen): 4
QolorAST MIC SVM (SVM-MIC) (E. coli [3]; Patient # 54, urine specimen): 4
QolorAST MIC Manual (MA-MIC) (E. coli [3]; Patient # 55, urine specimen): 8
QolorAST MIC SVM (SVM-MIC) (E. coli [3]; Patient # 55, urine specimen): 8
QolorAST MIC Manual (MA-MIC) (E. coli [3]; Patient # 56, urine specimen): 8
QolorAST MIC SVM (SVM-MIC) (E. coli [3]; Patient # 56, urine specimen): 8
QolorAST MIC Manual (MA-MIC) (E. coli [3]; Patient # 57, urine specimen): 8
QolorAST MIC SVM (SVM-MIC) (E. coli [3]; Patient # 57, urine specimen): 8
QolorAST MIC Manual (MA-MIC) (E. coli [3]; Patient # 58, urine specimen): 8
QolorAST MIC SVM (SVM-MIC) (E. coli [3]; Patient # 58, urine specimen): 8
QolorAST MIC Manual (MA-MIC) (E. coli [3]; Patient # 59, urine specimen): 16
QolorAST MIC SVM (SVM-MIC) (E. coli [3]; Patient # 59, urine specimen): 16
QolorAST MIC Manual (MA-MIC) (E. coli [3]; Patient # 60, urine specimen): 4
QolorAST MIC SVM (SVM-MIC) (E. coli [3]; Patient # 60, urine specimen): 4
QolorAST MIC Manual (MA-MIC) (E. coli [3]; Patient # 61, urine specimen): 4
QolorAST MIC SVM (SVM-MIC) (E. coli [3]; Patient # 61, urine specimen): 4
QolorAST MIC Manual (MA-MIC) (E. coli [3]; Patient # 62, urine specimen): 6
QolorAST MIC SVM (SVM-MIC) (E. coli [3]; Patient # 62, urine specimen): 6
QolorAST MIC Manual (MA-MIC) (E. coli [3]; Patient # 63, urine specimen): 4
QolorAST MIC SVM (SVM-MIC) (E. coli [3]; Patient # 63, urine specimen): 4
QolorAST MIC Manual (MA-MIC) (E. coli [3]; Patient # 64, urine specimen): 8
QolorAST MIC SVM (SVM-MIC) (E. coli [3]; Patient # 64, urine specimen): 8
QolorAST MIC Manual (MA-MIC) (E. coli [3]; Patient # 65, urine specimen): 8
QolorAST MIC SVM (SVM-MIC) (E. coli [3]; Patient # 65, urine specimen): 8
QolorAST MIC Manual (MA-MIC) (E. coli [3]; Patient # 66, urine specimen): 8
QolorAST MIC SVM (SVM-MIC) (E. coli [3]; Patient # 66, urine specimen): 8
QolorAST MIC Manual (MA-MIC) (E. coli [3]; Patient # 67*, urine specimen): <0.25
QolorAST MIC SVM (SVM-MIC) (E. coli [3]; Patient # 67*, urine specimen): <0.25
QolorAST MIC Manual (MA-MIC) (E. coli [3]; Patient # 68, urine specimen): 8
QolorAST MIC SVM (SVM-MIC) (E. coli [3]; Patient # 68, urine specimen): 8
Broth Microdilution MIC (MIC) (E. coli [4]; Patient # 49, E. coli): 8
Broth Microdilution MIC (MIC) (E. coli [4]; Patient # 50, E. coli): 8
Broth Microdilution MIC (MIC) (E. coli [4]; Patient # 51*, E. coli): 16
Broth Microdilution MIC (MIC) (E. coli [4]; Patient # 52, E. coli): 16
Broth Microdilution MIC (MIC) (E. coli [4]; Patient # 53, E. coli): 6
Broth Microdilution MIC (MIC) (E. coli [4]; Patient # 54, E. coli): 4
Broth Microdilution MIC (MIC) (E. coli [4]; Patient # 55, E. coli): 8
Broth Microdilution MIC (MIC) (E. coli [4]; Patient # 56, E. coli): 8
Broth Microdilution MIC (MIC) (E. coli [4]; Patient # 57, E. coli): 8
Broth Microdilution MIC (MIC) (E. coli [4]; Patient # 58, E. coli): 8
Broth Microdilution MIC (MIC) (E. coli [4]; Patient # 59, E. coli): 16
Broth Microdilution MIC (MIC) (E. coli [4]; Patient # 60, E. coli): 16
Broth Microdilution MIC (MIC) (E. coli [4]; Patient # 61, E. coli): 4
Broth Microdilution MIC (MIC) (E. coli [4]; Patient # 62, E. coli): 6
Broth Microdilution MIC (MIC) (E. coli [4]; Patient # 63, E. coli): 4
Broth Microdilution MIC (MIC) (E. coli [4]; Patient # 64, E. coli): 8
Broth Microdilution MIC (MIC) (E. coli [4]; Patient # 65, E. coli): 8
Broth Microdilution MIC (MIC) (E. coli [4]; Patient # 66, E. coli): 8
Broth Microdilution MIC (MIC) (E. coli [4]; Patient # 67*, E. coli): 2
Broth Microdilution MIC (MIC) (E. coli [4]; Patient # 68, E. coli): 8
SMILES: O=C1CN(/N=C/c2ccc([N+](=O)[O-])o2)C(=O)N1 [Nitrofurantoin]

Source: patent US20240253033A1, “MICROFLUIDIC DETECTION SYSTEM WITH ADJUSTABLE FLOW CONTROL” (priority 2022, published 2024)
